Reference: patent publication US6291540A, “Non-toxic initiators and their use for preparing stable and non-toxic polymers” (Rhodia Chimie, priority 1997, dated 2001)

Assays:
LLNA sensitization test = type: in vivo; conditions: cytotoxicity can also be detected
Description: (§1) The tests carried out to measure the toxicity of the initiators are the Ames test and the LLNA sensitization test. The Ames test makes it possible to measure the mutagenic power of the initiator and the LLNA sensitization test makes it possible to detect the sensitizing power of the initiator. The cytotoxicity of the initiators can also be detected in this latter test (see examples).
The following toxicology tests were carried out:
LLNA sensitization test: this test makes it possible to detect the sensitizing power of the product. The cytotoxicity of the products can also be detected in the course of the test.
Table I below indicates the results obtained for the various photoinitiators prepared above.

[1] = Ames test (mutagenic power); type: cell-based
Description: as §1, with “examples). The following toxicology tests were carried out: Ames test: this Ames test makes it possible to measure the mutagenic power of the product Table I below indicates the results obtained for the various photoinitiators prepared above.” for “examples).”

[2] = Reactivity under UV irradiation of the photoinitiator; conditions: compared with the other toxic photo-initiators
Source text: The crosslinkable compositions comprise the non-toxic initiator prepared in Example 4.

Cc1ccc([I+]c2ccc(C)cc2)cc1 [Example 1, ditolyliodonium chloride]
LLNA sensit. (LLNA sensitization test): cytotoxic | Ames [1]: cytotoxic

Cc1ccc([I+]c2ccc(C)cc2)cc1 [Example 2]
LLNA sensit. (LLNA sensitization test): positive | Ames [1]: positive

Cc1ccc([I+]c2ccc(C(C)C)cc2)cc1 [Example 3, cumyltolyliodonium chloride]
LLNA sensit. (LLNA sensitization test): negative | Ames [1]: negative

Cc1ccc([I+]c2ccc(C(C)C)cc2)cc1 [Example 4]
reactivity under UV irradiation [2]: comparable

CCOc1ccc([I+]c2ccc(C)cc2)cc1 [Example 8]
LLNA sensit. (LLNA sensitization test): positive | Ames [1]: positive and cytotoxic

Cc1ccc([I+]c2ccc(Oc3ccccc3)cc2)cc1 [Example 9]
LLNA sensit. (LLNA sensitization test): negative | Ames [1]: cytotoxic

CC(C)c1ccc([I+]c2ccc(C(C)C)cc2)cc1 [Example 10]
LLNA sensit. (LLNA sensitization test): positive | Ames [1]: negative

COc1ccc([I+]c2ccc(OC)cc2)cc1 [Example 11]
LLNA sensit. (LLNA sensitization test): cytotoxic | Ames [1]: cytotoxic
